Like-named read-outs stand apart in the source and are kept apart here.

In test [1] the target is T1, Avi-HsRNMT-RAM (Homo sapiens, UniProt O43148).
T1 construct: Both HsRNMT full-length proteins (1-476) in complex with HsRAM (1-90) (HsRNMT-RAM and Avi-HsRNMT-RAM); hexa-His tag (TEV-cleavable) (N, cleaved yes); made in house; host or cells: Escherichia coli BL21 (DE3), co-transformed with pCDFduet-BirA
Briefly: SPR binding to immobilised Avi-HsRNMT-RAM. Conditions: for kon: read-out: ka. The text has this: To elucidate the cap-binding mode, full-length HsRNMT in complex with activating subunit RAM (Avi-HsRNMT-RAM) was investigated by surface plasmon resonance (SPR). We first measured the kinetic and equilibrium binding constants (KD) for SAM (Figure 3A), SAH (Figure 3B), and Sinefungin (Figure 3C). The kinetics of binding for these compounds appear very similar with a rapid onset of binding reaching a steady state within a few seconds. The loss of binding on washing with buffer was very similar.
Studies of binding kinetics were performed on a Biacore™ 8K + instrument (GE Healthcare). […] Compounds were tested in duplicate in a three-fold, eight-point serial dilution series in immobilisation buffer supplemented with 1% DMSO, with a flow rate of 30 μL min^-1, a contact time of 60 s and a dissociation time of 120 s at 25°C.
All monitored binding resonance signals were referenced with responses from unmodified reference surfaces, corrected for bulk shifts arising from differences in DMSO concentrations between samples and running buffer (solvent correction) and blank-referenced. Analysis was performed using the Biacore™ Insight Evaluation Software 2.0 with data fitted using the Langmuir 1:1 model.
The full-length HsRNMT complexed with HsRAM 1–90 (Avi-HsRNMT-RAM) was immobilised onto a Series S high-affinity SA sensor chip via C-terminal Avi-tag capture in HBS-P + buffer (10 mM HEPES, 150 mM NaCl, 0.5 mM TCEP) to an immobilisation level of 2200 RU, and the titration was performed at 15°C.

Test [2] has as its target T2, HsRNMT-RAM (Homo sapiens, UniProt O43148). Briefly: Km determinations (RapidFire Mass Spec assay). Also on record: For biochemical assays, full-length HsRNMT (1-476) was cloned in the pOPC bi-cistronic plasmid; His-MBP (TEV-cleavable) (cleaved yes); made in house; host or cells: Escherichia coli BL21 (DE3). The class given is biochemical. The settings on record: SAM 40 to 0.08 µM, saturating cap (40 µM), 5 nM enzyme; mean of three experiments [95% CI]. The protocol: Experiments to determine the Km^app values were carried out using a two-fold dilution of cap or SAM from 40 to 0.08 µM and a saturating concentration (40 µM) of SAM (Km^app cap) or cap (Km^app SAM). HsRNMT-RAM was used at 5 nM. Data were analysed to calculate the initial velocity (V0). Km^app and Vmax values were determined by nonlinear regression analysis fitted to the Michaelis–Menten equation [46] using Sigmaplot Version 14.0.3.192.

The target of test [3] is T2, HsRNMT-RAM. Kind of test: Mode of inhibition experiments (RapidFire assay). Conditions: for Ki: Ki (95% CI).
Method: An endpoint 384-well plate assay for HsRMNT-RAM activity was developed using the Agilent RapidFire 365 high-throughput system with integrated SPE interfaced with the Agilent 6740 triple quadrupole mass spectrometer. The assay was performed by mixing 5 nM HsRNMT-RAM in buffer (20 mM Tris, pH 8.0, 50 mM NaCl) supplemented with 1 mM EDTA, 1 mM DTT, 0.1 mg/mL BSA, 0.005% Nonidet P40 (Roche) and 3 mM MgCl2 with 2 µM of substrates (G(5′)ppp(5′)G Sodium Salt (cap) [New England Biolabs, Ipswich, MA]) and S-(5′-Adenosyl)-L-methionine chloride dihydrochloride (SAM [Cayman Chemical, Ann Arbor, MI]). The enzymatic reaction incubated for 60 minutes at room temperature followed by quenching with 80 μL 1% formic acid (VWR, Radnor, PA) containing 0.03 µg/µL S-adenosylhomocysteine-d4 (d4SAH [Cambridge Bioscience, Cambridge, U.K]). Plates were centrifuged at 500×g for 1 minute after every addition and sealed using the PlateLoc thermal microplate sealer before analysis on the RapidFire. Samples were loaded onto the RapidFire system, and analysis was performed as described for the identification of inhibitors of the SARS-CoV-2 guanine-N7-methyltransferase [32].
Mode of inhibition experiments were carried out by testing enzymatic activity at a range of compound and substrate concentrations. Compounds were tested at five different concentrations selected around the pIC50 against five substrate concentrations (between 2.2 and 20 µM). The data were fitted globally to equations describing inhibition [47] to determine the respective kinetic constants. All analyses were performed in Sigmaplot Version 14.0.3.192.
Where relevant, data are presented as the mean of three independent experiments with 95% CI.
Test [4] concerns the target T2, HsRNMT-RAM. Kind of test: RapidFire mass spectrometry assay, inhibition dose response. The arrangement: For biochemical assays, full-length HsRNMT (1-476) was cloned in the pOPC bi-cistronic plasmid; His-MBP (TEV-cleavable) (cleaved yes); made in house; host or cells: Escherichia coli BL21 (DE3). It counts as biochemical. Conditions: for IC50: 5 nM HsRNMT-RAM, 2 µM SAM, 2 µM cap, 60 minutes, 10 point 1:3 dilutions from 100 μM, read-out: pIC50 (negative logarithm of half-maximal inhibitory concentration [molar]) (converted).

Test [5] has as its target T2, HsRNMT-RAM. Briefly: Isothermal titration calorimetry (ITC). The class given is binding. Also on record: For biochemical assays, full-length HsRNMT (1-476) was cloned in the pOPC bi-cistronic plasmid; His-MBP (TEV-cleavable) (cleaved yes); made in house; host or cells: Escherichia coli BL21 (DE3). Conditions: for ΔG / ΔH / −TΔS: 25 mM HEPES pH7.5, 150 mM NaCl, 1 mM TCEP with 10 mM Sinefungin or SAH at 298°K; for Kd: protein pretreated with Sinefungin or SAH. The protocol:
For both DDD1060606 and DDD1870799, we determined the enthalpic and entropic components of the free energy of binding to HsRNMT-RAM to guide both compound selection and the optimisation process. Note that all of the isothermal titration calorimetry (ITC) experiments were performed with protein pretreated with SAH or Sinefungin. We used cap as the reference ligand as it is widely accepted that ligands with more negative enthalpies of binding provide better starting points for lead optimisation. The interaction of cap with HsRNMT-RAM is enthalpically driven with an ΔH of −33.5 kcal/mol (Figure 9A) and net free energy change, ΔG of −8.4 kcal/mol (Figure 9B). Furthermore, we determined the binding affinities for DDD1060606 and DDD1870799 to HsRNMT-RAM.
[…] Working stock for ligands and protein complex was prepared at the required concentration by diluting the stocks with the dialysis buffer. The DMSO concentrations in the cell and syringe solutions were matched to 2.5% for the compound (DDD1060606 or DDD1870799) titrations. Experiments were performed using 13 injections of 3 μL of ligand using Malvern PEAQ-ITC system at 25°C, at 750 rpm with reference power set to 7 μcal/s. The thermograms were analysed using MicroCal PEAQ-ITC Analysis Software, blanked to ligand control and fit to One Set of Sites Model.

Setting [6] is: SPR, no co-ligand, Langmuir 1:1 model.
Where [7] appears, read: SPR, no co-ligand, read-out: KD (kinetic).
The mark [8] stands for this setting: SPR, no co-ligand, read-out: KD (steady state).
Setting [9] is: SPR, inhibitor titrated in presence of SAH.
Setting [10] is: SPR, inhibitor titrated in presence of SAH, read-out: KD (kinetic).
[11] abbreviates: SPR, inhibitor titrated in presence of SAH, read-out: KD (steady state).
[12] abbreviates: SPR, inhibitor titrated in presence of SAM.
The mark [13] stands for this setting: SPR, inhibitor titrated, no co-ligand.
Setting [14] is: SPR, ligand titrated in presence of SAH.
Setting [15] is: SPR, ligand titrated in presence of Sinefungin (saturating, 1 µM), 15°C.

T1 sequence (O43148 whole entry): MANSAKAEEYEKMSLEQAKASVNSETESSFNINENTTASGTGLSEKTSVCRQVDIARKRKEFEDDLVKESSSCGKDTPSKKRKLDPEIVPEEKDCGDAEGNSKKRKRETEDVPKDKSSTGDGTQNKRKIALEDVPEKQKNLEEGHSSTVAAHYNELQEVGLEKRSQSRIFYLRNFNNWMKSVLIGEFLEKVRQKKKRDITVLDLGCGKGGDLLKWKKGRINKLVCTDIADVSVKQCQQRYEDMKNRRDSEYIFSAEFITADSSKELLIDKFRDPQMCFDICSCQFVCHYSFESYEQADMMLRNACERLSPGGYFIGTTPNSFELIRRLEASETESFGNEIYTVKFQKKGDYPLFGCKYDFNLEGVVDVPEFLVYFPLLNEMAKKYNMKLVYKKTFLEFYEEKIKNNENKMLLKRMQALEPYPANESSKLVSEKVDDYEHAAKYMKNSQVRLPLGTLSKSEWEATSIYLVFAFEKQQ
T1 sequence (Q9BTL3 1-90 partner limits assumed): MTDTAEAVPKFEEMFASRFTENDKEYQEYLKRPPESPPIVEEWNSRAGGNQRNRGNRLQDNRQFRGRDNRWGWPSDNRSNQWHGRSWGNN
T2 sequence (O43148 whole entry): as the sequence (O43148 whole entry) above
T2 sequence (Q9BTL3 1-90 partner limits assumed): as the sequence (Q9BTL3 1-90 partner limits assumed) above

In test [1] (SPR, no co-ligand), `Nc1ncnc2c1ncn2[C@@H]1O[C@H](CSCC[C@H](N)C(=O)O)[C@@H](O)[C@H]1O` [SAH, S-adenosylhomocysteine] came in with an Rmax of 14.3 RU. The same compound returned a kd in test [1] (setting [6]) of 0.072 s⁻¹. The figures for the Kd in test [1] (setting [7]) and in test [1] (setting [8]) were 19 nM and 18 nM, respectively. In addition, the kon in test [1] was determined as 3.8e+06 M⁻¹ s⁻¹.

In turn, `C[S+](CC[C@H](N)C(=O)[O-])C[C@H]1O[C@@H](n2cnc3c(N)ncnc32)[C@H](O)[C@@H]1O` (stereo partly drawn) [SAM, S-adenosylmethionine] came in with an Rmax in test [1] (SPR, no co-ligand) of 14.9 RU. This compound also displayed a kd in test [1] (setting [6]) of 0.1 s⁻¹. The figures for the Kd in test [1] (setting [7]) and in test [1] (setting [8]) were 79 nM and 89 nM, respectively. In addition, in test [1], the kon worked out at 1.2e+06 M⁻¹ s⁻¹. For the same compound, the Km in test [2] came to 1.6 µM.

Regarding `O=C(Cc1ccsc1)N1CCCC(c2n[nH]c3ncccc23)C1` (stereo not drawn) [DDD1060606], in test [1] (setting [9]), the Rmax is 13.2 RU and the kd amounted to 0.27 s⁻¹. The Kd in test [1] (setting [10]) was determined as 1600 nM. Besides, the Kd in test [1] (setting [11]) worked out at 1400 nM. For the same compound, in test [1] (setting [12]), the “KD (kinetic)” value is on record as “No binding”, the “KD (steady state)” value is listed as “No binding”, the Rmax result is “No binding” and the ka entry is listed as “No binding”. Also, the kd result in test [1] (setting [12]) was “No binding”. Also, in test [1] (setting [13]), the “KD (kinetic)” value is “No binding”, the “KD (steady state)” value is given as “No binding”, the Rmax result is “No binding” and the ka entry is “No binding”. Further, in test [1] (setting [13]), the kd result is “No binding”. For the same compound, the affinity in test [3] (Ki SAM, against SAM), expressed as Ki, was 1600 nM. This compound also showed a Ki in test [3] (Ki cap, against cap) of 1600 nM. Besides, the “mode of inhibition with SAM” value in test [3] (against SAM) was “Uncompetitive”. The “mode of inhibition with cap” value in test [3] (against cap) was “Uncompetitive”. In test [4], the “inhibition of HsRNMT-RAM activity” value was greater than 80% and the IC50 is 3160 nM. Further, in test [5], the ΔG was -7.5 kcal/mol, the ΔH is -4.3 kcal/mol, the “−TΔS” value is -3.1 kcal/mol and the Kd turned out to be 3200 nM. Moreover, the “entropic contribution Δ(TΔS)” value in test [5] (DDD1060606 compared with DDD1870799) is -1.8 kcal/mol.

In turn, `Nc1nc(O)c2ncn([C@@H]3O[C@H](COP(=O)(O)OP(=O)(O)NP(=O)(O)O)[C@@H](O)[C@H]3O)c2n1` [GMP-PnP, guanosine 5′-[β,γ-imido]triphosphate, reference compound] showed a Ki in test [3] (Ki cap, against cap) of 2300 nM. Besides, the “mode of inhibition with cap” value in test [3] (against cap) is listed as “competitive”.

As for `Nc1nc2c(ncn2[C@@H]2O[C@H](COP(=O)(O)OP(=O)(O)OP(=O)(O)OC[C@H]3O[C@@H](n4cnc5c(=O)[nH]c(N)nc54)[C@H](O)[C@@H]3O)[C@@H](O)[C@H]2O)c(=O)[nH]1` [Cap, G(5′)ppp(5′)G], in test [1] (setting [14]), the “KD (kinetic)” value is reported as “No binding”, the “KD (steady state)” value is “No binding”, the Rmax result is listed as “No binding” and the ka entry is given as “No binding”. Besides, the kd entry in test [1] (setting [14]) is on record as “No binding”. Further, the “KD (kinetic)” value in test [1] (SPR, ligand titrated in presence of SAH, listed as cap) is given as “No interaction”. Besides, in test [1] (setting [15]), the Rmax was 11.8 RU, the kd is 0.025 s⁻¹ and the kon is 1.2e+06 M⁻¹ s⁻¹. Moreover, the Kd in test [1] (SPR, ligand titrated in presence of Sinefungin (saturating, 1 µM), 15°C, read-out: KD (kinetic)) is 20 nM. Besides, the Kd in test [1] (SPR, ligand titrated in presence of Sinefungin (saturating, 1 µM), 15°C, read-out: KD (steady state)) worked out at 35 nM. For the same compound, in test [1] (SPR, no co-ligand), the “KD (kinetic)” value is reported as “No binding”, the “KD (steady state)” value was “No binding” and the Rmax result is “No binding”. Further, in test [1] (setting [6]), the ka entry is “No binding” and the kd entry was “No binding”. Further, the “KD (kinetic)” value in test [1] (SPR, no co-ligand, listed as cap) was “No interaction”. For the same compound, in test [5], the ΔG is -8.4 kcal/mol, the ΔH is -33.5 kcal/mol, the “−TΔS” value turned out to be 25.1 kcal/mol and the Kd is 700 nM.

For `Nc1ncnc2c1ncn2[C@@H]1O[C@H](C[C@@H](N)CC[C@H](N)C(=O)O)[C@@H](O)[C@H]1O` [Sinefungin, reference compound], the Rmax in test [1] (SPR, no co-ligand) was found to be 14.2 RU. For the same compound, the kd in test [1] (setting [6]) amounted to 0.092 s⁻¹. In addition, the Kd in test [1] (setting [7]) was 77 nM; in test [1] (setting [8]), 73 nM. In addition, in test [1], the kon was 1.2e+06 M⁻¹ s⁻¹. In addition, the Ki in test [3] (Ki SAM, against SAM) turned out to be 6.8 nM; in test [3] (Ki cap, against cap), 104 nM. In addition, the “mode of inhibition with SAM” value in test [3] (against SAM) is on record as “competitive inhibition”. Moreover, the “mode of inhibition with cap” value in test [3] (against cap) is given as “non-competitive inhibition”.

`O=C(Cc1ccc(F)cc1)N1CCCC(c2n[nH]c3nc(O)ccc23)C1` (stereo not drawn) [DDD1870799]: in test [1] (setting [9]), the Rmax stood at 13.3 RU and the kd came to 0.45 s⁻¹. In addition, in test [1] (setting [10]), the Kd was 2500 nM. In test [1] (setting [11]), the Kd came out at 2300 nM. In test [1] (setting [12]), the “KD (kinetic)” value is “No binding”, the “KD (steady state)” value is recorded as “No binding”, the Rmax result is “No binding” and the ka result is reported as “No binding”. For the same compound, in test [1] (setting [12]), the kd result is recorded as “No binding”. In test [1] (setting [13]), the “KD (kinetic)” value is “No binding”, the “KD (steady state)” value is listed as “No binding”, the Rmax entry is recorded as “No binding” and the ka entry was “No binding”. The kd result in test [1] (setting [13]) is recorded as “No binding”. In test [3] (Ki SAM, against SAM), this compound came in with a Ki of 3400 nM. In test [3] (Ki cap, against cap), this compound yielded a Ki of 3300 nM. Also, the “mode of inhibition with SAM” value in test [3] (against SAM) is on record as “Uncompetitive”. In test [3] (against cap), the “mode of inhibition with cap” value was “Uncompetitive”. Also, in test [4], the “inhibition of HsRNMT-RAM activity” value is reported as greater than 80% and the IC50 was 10000 nM. In addition, in test [5], the ΔG was -7.5 kcal/mol, the ΔH was -6.2 kcal/mol, the “−TΔS” value was -1.3 kcal/mol and the Kd amounted to 2900 nM. For the same compound, in test [5] (DDD1870799 in comparison with DDD1060606), the “net enthalpic change ΔΔH” value is -1.9 kcal/mol.

The values above are taken from article PMC12133303, “Characterisation of RNA guanine-7 methyltransferase (RNMT) using a small molecule approach” (Biochemical Journal, 2025).
